Data published in the supplement of paper PMC10307832.

Tests used:
Test in all cases: relative viability (nuclei count vs DMSO), 5 days (fraction); higher = more cells survive
AT9283 + Foretinib = compound: O=C(Nc1c[nH]nc1-c1nc2ccc(CN3CCOCC3)cc2[nH]1)NC1CC1 [AT9283] + COc1cc2c(Oc3ccc(NC(=O)C4(C(=O)Nc5ccc(F)cc5)CC4)cc3F)ccnc2cc1OCCCN1CCOCC1 [Foretinib] (partner 0.25 µM)
Summary of the method: (§1)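 Lung cancer cell lines were pin-tool dosed in 1536-well plates on the day after seeding, with either a lone drug or a fixed anchor-drug dose plus five library-drug doses (not always all listed) in √10 steps. Nuclei were counted on 4× images after 5 days. Relative viability is the ratio of treated-well to vehicle-well nuclei counts, with each value a median of duplicate plates.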

Erlotinib + Alpelisib = compound: C#Cc1cccc(Nc2ncnc3cc(OCCOC)c(OCCOC)cc23)c1 [Erlotinib] + Cc1nc(NC(=O)N2CCC[C@H]2C(N)=O)sc1-c1ccnc(C(C)(C)C(F)(F)F)c1 [Alpelisib] (partner 2 µM)
Summary of the method: as §1

AT9283 + Pemetrexed = compound: O=C(Nc1c[nH]nc1-c1nc2ccc(CN3CCOCC3)cc2[nH]1)NC1CC1 [AT9283] + Nc1nc2[nH]cc(CCc3ccc(C(=O)N[C@@H](CCC(=O)O)C(=O)O)cc3)c2c(=O)[nH]1 [Pemetrexed] (partner 0.2 µM)
Summary of the method: as §1

AT9283 + AZD7762 = compound: O=C(Nc1c[nH]nc1-c1nc2ccc(CN3CCOCC3)cc2[nH]1)NC1CC1 [AT9283] + NC(=O)Nc1cc(-c2cccc(F)c2)sc1C(=O)N[C@H]1CCCNC1 [AZD7762] (partner 0.2 µM)
Summary of the method: as §1

AT9283 + Vorinostat = compound: O=C(Nc1c[nH]nc1-c1nc2ccc(CN3CCOCC3)cc2[nH]1)NC1CC1 [AT9283] + O=C(CCCCCCC(=O)Nc1ccccc1)NO [Vorinostat] (partner 1 µM)
Summary of the method: as §1

Row | Cell Line | relative viability (AT9283 + Foretinib; first compound 0.003 µM) | relative viability (AT9283 + Foretinib; first compound 0.03 µM) | relative viability (AT9283 + Foretinib; first compound 0.09487 µM) | relative viability (AT9283 + Foretinib; first compound 0.3 µM) | relative viability (Erlotinib + Alpelisib; first compound 0.02 µM) | relative viability (Erlotinib + Alpelisib; first compound 0.2 µM) | relative viability (Erlotinib + Alpelisib; first compound 2 µM) | relative viability (AT9283 + Pemetrexed; first compound 0.003 µM) | relative viability (AT9283 + Pemetrexed; first compound 0.03 µM) | relative viability (AT9283 + Pemetrexed; first compound 0.09487 µM) | relative viability (AT9283 + Pemetrexed; first compound 0.3 µM) | relative viability (AT9283 + AZD7762; first compound 0.003 µM) | relative viability (AT9283 + AZD7762; first compound 0.03 µM) | relative viability (AT9283 + AZD7762; first compound 0.09487 µM) | relative viability (AT9283 + AZD7762; first compound 0.3 µM) | relative viability (AT9283 + Vorinostat; first compound 0.003 µM) | relative viability (AT9283 + Vorinostat; first compound 0.03 µM) | relative viability (AT9283 + Vorinostat; first compound 0.09487 µM) | relative viability (AT9283 + Vorinostat; first compound 0.3 µM) | relative viability (Erlotinib + Alpelisib; first compound 0.6325 µM)
1 | NCI-H647 | 1.41 | 0.396 | 0.273 | 0.202 | 0.955 | 1.18 | 1.02 | 0.168 | 0.127 | 0.0669 | 0.0634 | 0.524 | 0.13 | 0.0611 | 0.0591 | 0.466 | 0.323 | 0.126 | 0.12 | –
2 | NCI-H650 | 1.08 | 0.958 | 0.332 | 0.154 | 1.22 | 1.25 | 1.06 | 0.939 | 0.864 | 0.53 | 0.153 | 0.814 | 0.923 | 0.373 | 0.227 | 0.405 | 0.375 | 0.282 | 0.146 | 1.11
3 | NCI-H838 | 1.05 | 0.427 | 0.262 | 0.281 | 1 | 0.962 | 0.855 | 0.227 | 0.21 | 0.182 | 0.153 | 0.968 | 0.705 | 0.612 | 0.655 | 0.68 | 0.221 | 0.194 | 0.24 | 1.09
4 | NCI-H1355 | 0.871 | 0.952 | 0.582 | 0.272 | – | 0.742 | 0.518 | 0.989 | 1.02 | 0.719 | 0.301 | 0.9 | 0.568 | 0.602 | 0.23 | 0.602 | 0.452 | 0.388 | 0.169 | 0.685
5 | NCI-H1395 | 0.729 | 0.88 | 0.465 | 0.397 | 1.34 | 1.08 | 1.07 | 0.799 | 0.764 | 0.322 | 0.34 | 0.411 | 0.361 | 0.333 | 0.335 | 0.579 | 0.494 | 0.337 | 0.299 | 1.08
6 | NCI-H1437 | 1.33 | 0.974 | 0.533 | 0.323 | 0.924 | 0.965 | 0.854 | 0.306 | 0.298 | 0.264 | 0.225 | 1.11 | 0.98 | 0.431 | 0.291 | 0.833 | 0.469 | 0.312 | 0.295 | –
7 | NCI-H1651 | 0.837 | 0.779 | 0.638 | 0.396 | 1.02 | 0.873 | 0.944 | 0.48 | 0.506 | 0.528 | 0.378 | 0.43 | 0.441 | 0.403 | 0.213 | 0.449 | 0.39 | 0.393 | 0.218 | 1.05
8 | NCI-H1666 | 1.01 | 0.725 | 0.534 | 0.496 | 0.901 | 0.631 | 0.348 | 0.775 | 0.818 | 0.718 | 0.612 | 0.817 | 0.685 | 0.733 | 0.491 | 1.18 | 0.769 | 0.527 | 0.606 | 0.504
9 | NCI-H1734 | 0.904 | 0.309 | 0.334 | 0.246 | 0.704 | 0.61 | 0.602 | 0.384 | 0.404 | 0.326 | 0.228 | 0.533 | 0.274 | 0.225 | 0.245 | 0.757 | 0.305 | 0.259 | 0.237 | 0.84
10 | NCI-H1755 | 0.871 | 0.755 | 0.559 | 0.496 | 1.01 | 0.933 | 0.872 | 0.438 | 0.415 | 0.361 | 0.301 | 0.466 | 0.401 | 0.326 | 0.267 | 0.74 | 0.784 | 0.54 | 0.398 | 0.937
11 | NCI-H1793 | 0.729 | 0.484 | 0.256 | 0.219 | 0.747 | 0.549 | 0.579 | 0.876 | 1.07 | 0.355 | 0.306 | 0.564 | 0.495 | 0.233 | 0.185 | 0.709 | 0.349 | 0.278 | 0.281 | 0.516
12 | NCI-H1915 | 1.04 | 0.995 | 0.451 | 0.256 | 1.09 | – | – | 0.547 | 0.431 | 0.326 | 0.254 | 0.617 | 0.548 | 0.334 | 0.222 | 0.489 | 0.466 | 0.175 | 0.152 | 1.09
13 | NCI-H1944 | 0.821 | 0.373 | 0.267 | 0.254 | 0.708 | 0.562 | 0.504 | 0.627 | 0.5 | 0.232 | 0.191 | 0.594 | 0.246 | 0.184 | 0.125 | 0.532 | 0.274 | 0.214 | 0.205 | 0.595
14 | NCI-H1975 | 0.947 | 0.949 | 0.82 | 0.326 | 0.717 | 0.696 | 0.454 | 0.295 | 0.282 | 0.27 | 0.276 | 0.7 | 0.711 | 0.622 | 0.458 | 0.742 | 0.666 | 0.504 | 0.281 | 0.535
15 | NCI-H1993 | 0.82 | 0.603 | 0.61 | 0.534 | 0.73 | 0.644 | 0.739 | 0.565 | 0.514 | 0.52 | 0.389 | 0.822 | 0.745 | 0.469 | 0.326 | 0.806 | 0.435 | 0.375 | 0.363 | 0.647
16 | NCI-H2085 | 1.1 | 0.736 | 0.51 | 0.338 | 0.935 | 0.81 | 0.645 | 0.959 | 0.9 | 0.537 | 0.441 | 0.968 | 0.969 | 0.749 | 0.353 | 0.775 | 0.755 | 0.631 | 0.305 | 0.673
